Data as given in patent US8304455B2, “Compositions and methods of their use for improving the condition and appearance of skin” (Avon Products, Inc, priority 2004, dated 2012).
Where “and” joins values, the source holds several entries; their conditions need not be identical. Equal entries are not always repeated.

Assays:
Format in all cases: cell-based
Conditions in all cases: normal human epidermal keratinocytes; transcript numbers normalized to vehicle control; replicate values
[1] = tested on: Hyaluronic acid synthase; test: PCR gene expression, Hyaluronic acid synthase; parameters: key: (—): Not statistically significant
Method: (§1) A vial of cryopreserved normal human epidermal keratinocytes (Adult or Neonatal) was removed from liquid N2 and placed in a 37° C. water bath for 1-2 minutes, or until completely thawed. The vial was then removed from the water bath and the excess water was wiped off. The vial was placed into a cell culture hood for sterility. The vial was wiped with 70% ethanol to air dry for 30 seconds. While in the cell culture hood, the cells were removed from the vial and placed into a 50 ml tube. The appropriate growth media (5 ml) was added drop wise while agitating the tube, allowing uniform mixture of the cells and medium while limiting cell death due to osmotic changes caused by freezing media, Medium (25 ml) was added to the 50 ml tube to bring the volume up to 30 ml. Into two 75 cm2 flasks, medium/cell solution (15 ml) was added, or to six 25 cm2 flasks, medium (5 ml) was added. Flasks were recapped and placed horizontally in a 37° C. humidified incubator with 5% CO2 for 24 hours. After 24 hours, the old medium was aspirated and fresh room temperature growth medium (15 ml) was added onto the cells. Prior to adding the fresh growth medium, it was brought up to room temperature using a room temperature water bath without the cover. The flasks containing cells with fresh media were placed back into the 37° C. incubator. Flasks containing the old media was replaced with fresh media repeatedly until the desired confluence (75%) was reached.
(§2) When the cells reached the desired confluency, they were removed from the incubator and the media was aspirated off using a vacuum trap. Hank's Buffered Saline Solution (HBSS; 10 ml of 1X; Mediatech, Inc.; Herndon, Va.) was placed into the flask and the entire surface area rinsed. The HBSS was then aspirated. Trypsin (1X; Mediatech, Inc.) was added in a 5 ml volume. The flasks were placed back into the incubator for 8 minutes. The flasks were taken from the incubator and 15 ml of Trypsin Neutralizing Solution (1X; Cascade Biologics; Portland, Oreg.) was added to each flask to neutralize the trypsin. […]

[2] = tested on: Collagen 4; test: PCR gene expression, Collagen 4
Method: as §1, §2

[3] = tested on: Collagen 7; test: PCR gene expression, Collagen 7
Method: as §1, §2

[4] = tested on: Frizzled 10; test: PCR gene expression, Frizzled 10
Method: as §1, §2

[5] = tested on: Estrogen Receptor alpha; test: PCR gene expression, Estrogen Receptor alpha
Method: as §1, §2

[6] = tested on: Beta-catenin; test: PCR gene expression, Beta-catenin
Method: as §1, §2

| SMILES | Hyaluronic acid synthase Transcript # [1] | Collagen 4 Transcript # [2] | Collagen 7 Transcript # [3] | Frizzled 10 Transcript # [4] | Estrogen Receptor alpha Transcript # [5] | Beta-Catenin Transcript # [6] |
| --- | --- | --- | --- | --- | --- | --- |
| CCNC(=O)CC[C@H](N)C(=O)O [L-Theanine, L-theanine] | 10.53 and 7.971 and 8.113 | 10.79 and 9.561 and 10.49 | 12.87 and 10.72 and 11.44 | 17.68 and 16.48 and 17.08 | 13.03 and 12.39 and 7.627 | 10.31 and 8.678 (2×) |
| CSC[C@H](N)C(=O)O [S-Methyl-L-Cysteine] | — | 9.845 and 10.83 and 9.353 | 14.83 and 16.55 (2×) | 18.65 and 16.26 and 18.41 | 6.087 and 5.073 | 8.657 and 10.39 and 9.955 |
| N[C@@H](CSc1ccccc1)C(=O)O [S-Phenyl-L-Cysteine] | 3.637 (2×) and 3.423 | 7.416 and 8.343 and 8.807 | 35.46 and 34.38 and 30.09 | 34.68 and 26.67 and 30.62 | 8.12 and 10.99 and 8.598 | 14.67 and 15.49 and 11.41 |
